# Source: patent US20230051589A1, “COMPOUNDS AND COMPOSITIONS FOR TREATING CONDITIONS ASSOCIATED WITH NLRP ACTIVITY” (Novartis AG, priority 2018, published 2023)
# pIC50: −log10 of the molar value.
# Tested on: IL-1β production in PMA-differentiated THP-1 cells
# Assay: IL-1β production in PMA-differentiated THP-1 cells stimulated with gramicidin (hTHP-1 assay, 2% fetal bovine serum; Procedures 1-3)
# Assay type: cell-based, human
# Settings: Homo sapiens, THP-1, Table B1; hTHP-1 assay containing 2% fetal bovine serum, gramicidin stimulation, IL-1β readout; read-out: hTHP-1 IC50 (average)
# Outline: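 IL-1β released into supernatants was read by HTRF after 2 h gramicidin (5 μM) challenge. Before challenge, compounds (3-fold dilutions, top 100 μM, 0.37% DMSO) were given 1 h on THP-1 cells differentiated with PMA (20 ng/ml, 16-18 h) and held in 2% FBS medium.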
row,pIC50,SMILES
2,6.70 to 7.40,"Cc1oc(S(N)(=O)=NC(=O)Nc2c3c(cc4c2CCC4C)CCC3)cc1C(C)(C)O (single isomer, unassigned) [Example 125]"

# Same assay, conditions: Homo sapiens, THP-1, Table B3; hTHP-1 assay containing 2% fetal bovine serum, gramicidin stimulation, IL-1β readout; read-out: hTHP-1 IC50
row,pIC50,SMILES
1,5.30 to 6.00,"NS(=O)(=NC(=O)Nc1c2c(cc3c1CC3)CCC2)c1cc2c(s1)CCN(CC(F)F)C2 (centres unmarked) [Example 773, 5-(2,2-Difluoroethyl)-N′-((2,4,5,6-tetrahydro-1H-cyclobuta[f]inden-3-yl)carbamoyl)-4,5,6,7-tetrahydrothieno[3,2-c]pyridine-2-sulfonimidamide]"
2,6.00 to 6.70,"NS(=O)(=NC(=O)Nc1c2c(cc3c1CC3)CCC2)c1cc2c(s1)CCNC2C(F)F (single isomer, unassigned) [Example 782, (S) or (R) -4-(difluoromethyl)-N′-((2,4,5,6-tetrahydro-1H-cyclobuta[f]inden-3-yl)carbamoyl)-4,5,6,7-tetrahydrothieno[3,2-c]pyridine-2-sulfonimidamide]"
3,5.30 to 6.00,"CN1CCCC(c2ccc(S(N)(=O)=NC(=O)Nc3c4c(cc5c3CC5)CCC4)c(F)c2)C1 (single isomer, unassigned) [Example 862, (R, R) or (S, R)-2-fluoro-4-(1-methylpiperidin-3-yl)-N′-((2,4,5,6-tetrahydro-1H-cyclobuta[f]inden-3-yl)carbamoyl)benzenesulfonimidamide]"

# Same assay, conditions: Homo sapiens, THP-1, hTHP-1 assay containing 2% fetal bovine serum, Table B2, class symbols; read-out: IC50
row,SMILES,pIC50
1,"C=CCNCc1ccc([S@](N)(=O)=NC(=O)Nc2c3c(cc4c2CCC4)CCC3)cc1 [Example 699, (R)-4-((allylamino)methyl)-N′-((1,2,3,5,6,7-hexahydro-s-indacen-4-yl)carbamoyl)-benzenesulfonimidamide]",5.30 to 6.00
2,"CC(C)(O)c1cc(F)c(S(N)(=O)=NC(=O)Nc2c3c(cc4c2CCC4=O)CCC3)s1 (centres unmarked) [Example 438, 3-Fluoro-5-(2-hydroxypropan-2-yl)-N′-((1-oxo-1,2,3,5,6,7-hexahydro-s-indacen-4-yl)carbamoyl)thiophene-2-sulfonimidamide]",6.00 to 6.70
3,CC(C)(O)c1ccnc([S@@](N)(=O)=NC(=O)Nc2c3c(c(C#N)c4c2CCC4)CCC3)c1 [Compound 818b],6.00 to 6.70
4,CC(C)(CO)c1ncc([S@@](N)(=O)=NC(=O)Nc2c3c(c(C#N)c4c2CCC4)CCC3)s1 [Compound 913a],5.30 to 6.00
5,C[C@@](O)(CO)c1ncc([S@](N)(=O)=NC(=O)Nc2c3c(cc4c2CC4)CCC3)s1 [Compound 919a],6.00 to 6.70

# Results, then the compound that gave them:
row,pIC50,SMILES
1,6.00 to 6.70,"CN(C)C(c1ccc(S(N)(=O)=NC(=O)Nc2c3c(cc4c2CCC4)CCC3)cc1)C1CC1 (centres unmarked) [Example 484, 4-(Cyclopropyl(dimethylamino)methyl)-N′-((1,2,3,5,6,7-hexahydro-s-indacen-4-yl)carbamoyl)benzenesulfonimidamide]"
2,6.00 to 6.70,NS(=O)(=NC(=O)Nc1c2c(cc3c1CCC3)CCC2)c1ccc([C@@H]2CCCN2)s1 (some centres unmarked) [921f^]

# Same assay, conditions: Homo sapiens, THP-1, hTHP-1 assay containing 2% fetal bovine serum, Table B2, given as bound; read-out: IC50
row,SMILES,pIC50
1,"CC(C)(O)c1cnc(S(N)(=O)=NC(=O)Nc2c3c(cc4c2C(O)CC4)CCC3)s1 (single isomer, unassigned) [Example 654, (S,R) or (S,S)-N′-((-3-hydroxy-1,2,3,5,6,7-hexahydro-s-indacen-4-yl)carbamoyl)-5-(2-hydroxypropan-2-yl)thiazole-2-sulfonimidamide]",< 4.52
2,"CC(C)(O)c1cnc([S@@](N)(=O)=NC(=O)Nc2c3c(cc4c2C(O)CC4)CCC3)s1 (stereo partly drawn) [Example 511, (S)-N′-((3-hydroxy-1,2,3,5,6,7-hexahydro-s-indacen-4-yl)carbamoyl)-5-(2-hydroxypropan-2-yl)thiazole-2-sulfonimidamide]",< 4.52

# The next lines start with the values.
row,pIC50,SMILES
1,< 4.52,"CN(C)C(c1ccc(S(N)(=O)=NC(=O)Nc2c3c(cc4c2CCC4)CCC3)cc1)C(F)(F)F (single isomer, unassigned) [Example 663]"
2,< 4.52,CN(C)CC(C)(C)c1ccc([S@](N)(=O)=NC(=O)Nc2c3c(cc4c2CCC4)CCC3)cc1 [Compound 902a]

# Same assay, conditions: Table B3; hTHP-1 assay containing 2% fetal bovine serum, gramicidin stimulation, IL-1β readout; read-out: hTHP-1 IC50
row,SMILES,pIC50
1,"C[C@@](O)(CO)c1ncc(S(N)(=O)=NC(=O)Nc2c3c(cc4c2C(=O)CC4)CCC3)s1 (single isomer, unassigned) [Example 819, (R) or (S) -2-((R)-1,2-dihydroxypropan-2-yl)-N′-((3-oxo-1,2,3,5,6,7-hexahydro-s-indacen-4-yl)carbamoyl)thiazole-5-sulfonimidamide]",6.00 to 6.70
2,"CC(C)(O)c1ccc(S(N)(=O)=NC(=O)Nc2c3c(cc4c2C(=O)CC4)CCC3)cn1 (single isomer, unassigned) [Example 831, (S) or (R)-6-(2-hydroxypropan-2-yl)-N′-((3-oxo-1,2,3,5,6,7-hexahydro-s-indacen-4-yl)carbamoyl)pyridine-3-sulfonimidamide]",< 4.52
3,"C[C@@](O)(CO)c1ncc(S(N)(=O)=NC(=O)Nc2c3c(cc4c2CC4)CCC3)s1 (single isomer, unassigned) [Example 817, (R) or (S)-2-((R)-1,2-dihydroxypropan-2-yl)-N′-((2,4,5,6-tetrahydro-1H-cyclobuta[f]inden-3-yl)carbamoyl)thiazole-5-sulfonimidamide]",7.40 to 8.10

# Results, then the compound that gave them:
row,pIC50,SMILES
1,6.00 to 6.70,"CC(NC1CCC1)c1ccc(S(N)(=O)=NC(=O)Nc2c3c(cc4c2CC4)CCC3)c(F)c1 (centres unmarked) [Example 725, 4-(1-(cyclobutylamino)ethyl)-2-fluoro-N′-((2,4,5,6-tetrahydro-1H-cyclobuta[f]inden-3-yl)carbamoyl)benzenesulfonimidamide]"
2,6.00 to 6.70,"NS(=O)(=NC(=O)Nc1c2c(cc3c1CC3)CCC2)c1cc2c(s1)CCNC2 (single isomer, unassigned) [Example 717]"
3,5.30 to 6.00,"CN1CCCC(c2ccc(S(N)(=O)=NC(=O)Nc3c4c(cc5c3CC5)CCC4)c(F)c2)C1 (centres unmarked) [Example 766, 2-Fluoro-4-(1-methylpiperidin-3-yl)-N′-((2,4,5,6-tetrahydro-1H-cyclobuta[f]inden-3-yl)carbamoyl)benzenesulfonimidamide]"

# Same assay, conditions: hTHP-1 assay containing 2% fetal bovine serum, Table B2, class symbols; read-out: IC50
row,SMILES,pIC50
1,"CN(C)C(c1ccc(S(N)(=O)=NC(=O)Nc2c3c(cc4c2CCC4)CCC3)cc1)C(F)F (single isomer, unassigned) [Example 647, (S,R) or (R,R)-4-(1-(dimethylamino)-2,2-difluoroethyl)-N′-((1,2,3,5,6,7-hexahydro-s-indacen-4-yl)carbamoyl) benzenesulfonimidamide]",6.00 to 6.70
2,"CC(C)c1cc2c(cc1NC(=O)N=S(N)(=O)c1cnc(C(C)(C)O)s1)CCC2 (single isomer, unassigned) [Example 526, (R) or (S)-2-(2-hydroxypropan-2-yl)-N′-((6-isopropyl-2,3-dihydro-1H-inden-5-yl)carbamoyl)thiazole-5-sulfonimidamide]",6.00 to 6.70
3,"CC(C)(O)c1cc(S(N)(=O)=NC(=O)Nc2c3c(cc4c2CCC4)CCC3)sc1-c1ccccc1 (single isomer, unassigned) [Example 553, (S) or (R)-N′-((1,2,3,5,6,7-hexahydro-s-indacen-4-yl)carbamoyl)-(4-2-hydroxypropan-2-yl)-5-phenylthiophene-2-sulfonimidamide]",4.52 to 5.30

# Next, values leading:
row,pIC50,SMILES
1,4.52 to 5.30,"NS(=O)(=NC(=O)Nc1c2c(cc3c1CCC3)CCC2)c1ccc(C2CCNC2)cc1F (centres unmarked) [Example 500, 2-Fluoro-N′-((1,2,3,5,6,7-hexahydro-s-indacen-4-yl)carbamoyl)-4-(pyrrolidin-3-yl)benzenesulfonimidamide]"
2,6.00 to 6.70,"CN(C)C(c1ccc(S(N)(=O)=NC(=O)Nc2c3c(cc4c2CCC4)CCC3)cc1)C(F)(F)F (single isomer, unassigned) [Example 667, (S,R) or (R,R)-4-(1-(dimethylamino)-2,2,2-trifluoroethyl)-N′-((1,2,3,5,6,7-hexahydro-s-indacen-4-yl)carbamoyl) benzenesulfonimidamide]"
3,4.52 to 5.30,"NS(=O)(=NC(=O)Nc1c2c(cc3c1CCC3)CCC2)c1ccc(C2CCCN2)cc1 (mixture of isomers) [Example 649, (S,R) or (R,R) and (S,S) or (R,S)-N′-((1,2,3,5,6,7-hexahydro-s-indacen-4-yl)carbamoyl)-4-(pyrrolidin-2-yl) benzenesulfonimidamide (mixture of two isomers)]"
4,4.52 to 5.30,"CC(OC(F)F)c1ccc(S(N)(=O)=NC(=O)Nc2c3c(cc4c2CCC4)CCC3)cc1 (single isomer, unassigned) [Example 642]"
5,5.30 to 6.00,"CN(C)[C@H](c1ccc([S@](N)(=O)=NC(=O)Nc2c3c(cc4c2CCC4)CCC3)cc1)C(F)(F)F (single isomer, unassigned) [Example 668, (R,R) or (S,R)-4-(1-(dimethylamino)-2,2,2-trifluoroethyl)-N′-((1,2,3,5,6,7-hexahydro-s-indacen-4-yl)carbamoyl) benzenesulfonimidamide]"

# Same assay, conditions: hTHP-1 assay containing 2% fetal bovine serum, Table B2, given as bound; read-out: IC50
row,SMILES,pIC50
1,"CN(C)Cc1ccc([S@@](N)(=O)=NC(=O)Nc2c3c(cc4c2CCC4)CCC3)cc1F (single isomer, unassigned) [Example 604, (S) or (R)-4-((dimethylamino)methyl)-3-fluoro-N′-((1,2,3,5,6,7-hexahydro-s-indacen-4-yl)carbamoyl) benzenesulfonimidamide]",< 4.52
2,"CC(C)(O)c1cnc(S(N)(=O)=NC(=O)Nc2c3c(cc4c2CCC4O)CCC3)s1 (single isomer, unassigned) [Example 656, (S,S) or (S,R)-N′-((1-hydroxy-1,2,3,5,6,7-hexahydro-5-indacen-4-yl)carbamoyl)-5-(2-hydroxypropan-2-yl)thiazole-2-sulfonimidamide]",< 4.52
